Patent US9517985B2, “Method for producing butanol using extractive fermentation” (Butamax Advanced Biofuels LLC, priority 2013, dated 2016)
Like-named read-outs stand apart in the source and are kept apart here.

Assays:
[1] = Secondary screen for solvent biocompatibility (shake flask; Cellometer viability, glucose, isobutanol); conditions: yeast (isobutanologen)
[2] = system: isobutanologen; experiment: as above; conditions: 30° C.; for % Viability: relative to oleyl alcohol
[3] = system: isobutanologen; experiment: Three step screening process, overall biocompatibility call
[4] = system: isobutanologen; experiment: Tertiary screen for solvent biocompatibility (growth of isobutanologen in rich media with solvent, time course); format: cell-based; conditions: for isobutanol production: FIG. 11, versus oleyl alcohol control; for glucose consumption: FIG. 12, versus oleyl alcohol control; for ethanol consumption: FIG. 13, versus oleyl alcohol control
[5] = system: isobutanologen
[6] = system: isobutanologen; experiment: Automated primary screen for solvent biocompatibility (96 well plate, propidium iodide dead-cell fluorescence); format: cell-based
[7] = system: modified Escherichia coli strain; conditions: oleyl alcohol as the organic extractant, Example 6 of US 2009/0305370; cited from earlier work
[8] = propidium iodide signal, 1 h exposure, 1:1 aq:org, room temperature

Compound | viability at 4 h [1] | viability at 25 h [1] | Glucose ([2]; 4 Hours) | iBuOH ([2]; 4 Hours) | Glucose ([2]; 25 Hours) | iBuOH ([2]; 25 Hours) | viability at 30 h [1] | Glucose ([2]; 30 Hours) | iBuOH ([2]; 30 Hours) | other results
CCCCCCCCCC [n-decane] | 107% | 54% | 5.8 g/L | 1.6 g/L | 0.0 g/L | 2.3 g/L |  |  |  | 
CCCCCCCCCCCC [dodecane] |  |  |  |  |  |  | 99% | 0.0 g/L | 1.9 g/L | biocompatibility [3]: biocompatible; viability at 5 h [1]: 99%; isobutanol production [4]: comparable to oleyl alcohol; glucose consumption [4]: comparable to oleyl alcohol; ethanol consumption [4]: comparable to oleyl alcohol
CCCCOC(C)=O [n-butyl acetate] |  |  |  |  |  |  | 35% | 16.6 g/L | 0.0 g/L | viability at 5 h [1]: 46%
Cc1cccc2cccnc12 [8-methylquinoline] |  |  |  |  |  |  | 47% | 17.5 g/L | 0.0 g/L | 
CCCCCCCCCCCC=O [dodecanal] |  |  |  |  |  |  | 62% | 0.0 g/L | 0.0 g/L | viability at 5 h [1]: 78%; biocompatibility [5]: toxic
CCCCOCCOCCCC [1,2-dibutoxyethane] | 63% | 8% | 11.9 g/L | 0.4 g/L | 10.7 g/L | 0.4 g/L |  |  |  | 
CCCCC(CC)COC(C)=O (stereo not drawn) [2-ethyl hexyl acetate] |  |  | 10.5 g/L | 0.6 g/L | 7.1 g/L | 1.2 g/L |  |  |  | % Dead [6, 8]: 3%; % Viability ([2]; 4 Hours, 1:1): 96%; % Viability ([2]; 25 Hours, 1:1): 42%
CCCCOC(=O)CCC [n-butyl n-butyrate] | 48% | 7% | 12.4 g/L | 0.0 g/L | 11.7 g/L | 0.0 g/L |  |  |  | 
C1CCC2CCCCC2C1 (stereo not drawn) [decalin] | 76% | 36% | 11.2 g/L | 0.4 g/L | 10.3 g/L | 0.5 g/L |  |  |  | 
CCCCCCCCOCCCCCCCC [di-n-octyl ether] |  |  |  |  |  |  | 99% | 0.0 g/L | 1.9 g/L | viability at 5 h [1]: 99%; isobutanol production [4]: comparable to oleyl alcohol; glucose consumption [4]: comparable to oleyl alcohol; ethanol consumption [4]: comparable to oleyl alcohol
CC(C)CC(O)CC(C)C [2,6-dimethylheptan-4-ol] | 42% | 8% | 12.1 g/L | 0.0 g/L | 11.8 g/L | 0.0 g/L |  |  |  | 
CCCCCCCCCCC [n-undecane] |  |  |  |  |  |  | 100% | 0.0 g/L | 1.9 g/L | viability at 5 h [1]: 98%; isobutanol production [4]: comparable to oleyl alcohol; glucose consumption [4]: comparable to oleyl alcohol; ethanol consumption [4]: comparable to oleyl alcohol
CC(C)CC(C)(C)C [isooctane] | 90% | 31% | 10.8 g/L | 0.5 g/L | 8.5 g/L | 0.8 g/L |  |  |  | 
CCCCCCCCCCCCO [dodecanol] |  |  |  |  |  |  |  |  |  | biocompatibility [3]: toxic
COC(C)(C)C [MTBE] |  |  | 12.7 g/L | 0.0 g/L | 12.9 g/L | 0.2 g/L |  |  |  | % Dead [6]: 19%
CC(C)CC(=O)CC(C)C [2.6-dimethylheptan-4-one] |  |  | 10.9 g/L | 0.6 g/L | 7.9 g/L | 0.9 g/L |  |  |  | % Dead [6, 8]: 5%; % Viability ([2]; 4 Hours, 1:1): 78%; % Viability ([2]; 25 Hours, 1:1): 26%
CCCCCCCCCCCC(=O)OC [methyl laurate] | 110% | 94% | 3.9 g/L | 2.1 g/L | 0.0 g/L | 1.6 g/L |  |  |  | isobutanol production [4]: comparable to oleyl alcohol; glucose consumption [4]: comparable to oleyl alcohol; ethanol consumption [4]: comparable to oleyl alcohol
CCCCCCOC(C)=O [n-hexyl acetate] | 18% | 3% | 12.8 g/L | 0.0 g/L | 13.0 g/L | 0.0 g/L |  |  |  | 
CCCCCCCC/C=C\CCCCCCCCO [oleyl alcohol, reference compound] | 100% | 100% | 5.7 g/L | 1.8 g/L | 0.0 g/L | 2.6 g/L | 100% | 0.0 g/L | 2.2 g/L | effective titer for isobutanol [7]: 37 g/L; viability at 5 h [1]: 100%
Cc1cc(C)cc(C)c1 [mesitylene] | 64% | 17% | 12.5 g/L | 0.0 g/L | 12.1 g/L | 0.1 g/L |  |  |  | 
CCOC(C)(C)C [ETBE] |  |  | 12.5 g/L | 0.0 g/L | 12.8 g/L | 0.0 g/L |  |  |  | % Dead [6, 8]: 6%; % Viability ([2]; 4 Hours, 1:1): 16%; % Viability ([2]; 25 Hours, 1:1): 4%
trimethylnonanol |  |  |  |  |  |  |  | 0.0 g/L | 2.1 g/L | % Dead [6, 8]: 3%; % Viability ([2]; 5 Hours): 99%; % Viability ([2]; 30 Hours): 98%; isobutanol production [4]: comparable to oleyl alcohol; glucose consumption [4]: comparable to oleyl alcohol; ethanol consumption [4]: comparable to oleyl alcohol; biocompatibility [5]: biocompatible
CCCCC(CC)COCCO (stereo not drawn) [2-ethylhexylglycol ether] |  |  |  |  |  |  |  |  |  | % Dead [6, 8]: 79%
CCCCCCOCCCCCC [di-n-hexyl ether] | 106% | 62% | 8.1 g/L | 1.1 g/L | 0.9 g/L | 1.9 g/L |  |  |  | 
CCCCC(CC)CO (stereo not drawn) [2-ethyl-1-hexanol, reference compound] | 14% | 6% | 13.1 g/L | 0.0 g/L | 13.7 g/L | 0.0 g/L | 47% | 16.8 g/L | 0.0 g/L | viability at 5 h [1]: 58%
primary amyl acetate mixed isomers |  |  |  |  |  |  |  |  |  | % Dead [6, 8]: 104%
